One molecule from publication PMC11467779, “New anti-ovarian cancer quinolone derivatives acting by modulating microRNA processing machinery” (RSC Medicinal Chemistry, 2024) can be followed below.

In data set [1] the test system is SKOV-3 cell line. Put plainly: Antiproliferative effect against the SKOV-3 cell line (GI50, cell count). Type of data set: cell-based, human. The protocol: (§1) SKOV-3, A2780 and A2780 CIS were cultured and maintained, as previously described,[50] at 37 °C in RPMI 1640 medium (Euroclone) supplemented with 10% fetal bovine serum (FBS; Euroclone), L-glutamine and penicillin/streptomycin (SIGMA-ALDRICH). OVCA433, HEK-293T, HeLa, HCCLM3, SK-Hep-1, MCF-7, A549 and HCT-116 cells were maintained in DMEM medium (Euroclone) containing 10% FBS (Euroclone), L-glutamine and penicillin/streptomycin (SIGMA-ALDRICH). Wi-38 cells were cultured in DMEM medium (Euroclone) supplemented with 10% FBS (Euroclone), L-glutamine and penicillin/streptomycin (SIGMA-ALDRICH), and 1% non-essential amino acids (NEAA; Euroclone). The cultures were maintained in a constant temperature incubator at 37 °C with 5% CO2. […] Once cell adhesion had been promoted, the compounds were added to the culture medium. After 72 hours of treatment, the cells were counted, and the data analyzed by linear regression. Each experiment was carried out three times in triplicate and three separate cell counts were made for each sample. […] Afterwards, the concentration range was narrowed to the relative value obtained in the first evaluation in order to obtain an accurate value.

Data set [2] is described as follows: Cytotoxicity against non-tumor Wi-38 cells (CC50, cell count). It counts as cell-based. Conditions: human, Wi-38 cells (non-tumor), 50% cytotoxicity concentration, 72 hours of treatment. The protocol:
as §1

For data set [3], the system named is A2780. Put plainly: Antiproliferative effect against A2780 (GI50). Type of data set: cell-based. Conditions: Homo sapiens, 72 hours of treatment, cell count. How it is done: as §1
Data set [4] deals with distinct OC cell lines. As to the kind of experiment: Anti-OC activity against distinct cell lines (GI50 range). It counts as cell-based. Conditions: Homo sapiens; range over the OC cell lines tested. The protocol:
Once cell adhesion had been promoted, the compounds were added to the culture medium. After 72 hours of treatment, the cells were counted, and the data analyzed by linear regression. Each experiment was carried out three times in triplicate and three separate cell counts were made for each sample.
Afterwards, the concentration range was narrowed to the relative value obtained in the first evaluation in order to obtain an accurate value.

For data set [5], the system named is WT HCCLM3 cells. Put plainly: Antiproliferative effect on WT HCCLM3 cells (CCK-8). Particulars: 30 μM, 48 hours. It counts as cell-based, human. How it is done:
(§2) HCCLM3 and SK-Hep-1 cells were seeded into 96-well plates at a density of 10 000 cells per well and allowed to adhere overnight. Subsequently, the cells were treated with the following substances: 0.1% DMSO as the negative control, various concentrations of the test compounds, and 125 μM enoxacin as the positive control. After 48 h of incubation, the original culture medium was removed, and the cells were washed twice with PBS. Then, 100 μL of DMEM culture medium containing 10% CCK-8 (Bimake, USA) was added to each well. The plates were incubated for 30 minutes at 37 °C. To determine the […], measurements were taken at a wavelength of 450 nm using a Varioskan from Thermo Fisher Scientific.

Data set [6] deals with KO TRBP SK-Hep-1 cells. Put plainly: Antiproliferative effect on KO TRBP SK-Hep-1 cells (CCK-8). Type of data set: cell-based, human. Particulars: 48 hours. How it is done: as §2
The test system of data set [7] is MCF-7 (breast cancer). As to the kind of experiment: Proliferation of MCF-7 cells (trypan blue count). It counts as cell-based, human. Particulars: 30 μM, 72 hours. The protocol: (§3) A2780 and SKOV-3 cells were treated with 50 μM of 33 for 72 h before RNA and protein extraction and expression analyses. A2780 and A2780 CIS were treated with 33 (30 μM) and/or cisplatin (1 μM, Sigma-Aldrich) for 48 hours while MCF-7, A549 and HCT-116 were treated with 33 (30 μM) for 72 hours. Total cell number and viability have been assessed using Trypan Blue Solution (Thermo Fisher Scientific) and Countess™ 3 Automated Cell Counter (Thermo Fisher Scientific).

Data set [8] relates to A549 (lung carcinoma). As to the kind of experiment: Proliferation of A549 cells (trypan blue count). Conditions: 30 μM, 72 hours. It counts as cell-based, human. The protocol:
as §3

The test system of data set [9] is SKOV-3 cells. As to the kind of experiment: SKOV-3 cell number, cell death and apoptosis markers (trypan blue, Western blot). It counts as cell-based, human. Particulars: 30 μM, 72 hours. For orientation: A western blot detects proteins with antibodies after separation by electrophoresis.
Data set [10] relates to A2780 cells. Put plainly: A2780 cell number, cell death and apoptosis markers (trypan blue, Western blot). Type of data set: cell-based, human. The source says:
[…] […] Total cell number and viability have been assessed using Trypan Blue Solution (Thermo Fisher Scientific) and Countess™ 3 Automated Cell Counter (Thermo Fisher Scientific).
(§4) Lysates were loaded on 4–12% bis–tris-acrylamide gel (Life Technologies) and transferred to a nitrocellulose membrane. The membrane was blocked in 5% milk and hybridized with α-TRBP (15753-1-AP Proteintech), α-GAPDH (sc-25778, Santa Cruz Biotechnology), α-c-PARP (Bioss Antibodies, BSM-52408R), α-BCLXL (mAb #2764, Cell Signaling Technology) and α-β-actin (A3854, Sigma) antibodies. All the images were captured using the ChemiDocTM Touch Imaging System (Bio-Rad), and the densitometric analyses were performed using the associated Image Lab software (Bio-Rad).

Data set [11] relates to cisplatin-resistant A2780 cells (A2780 CIS). Put plainly: Viable cells of cisplatin-resistant A2780 (A2780 CIS) treated with 33, cisplatin or both. It counts as cell-based, human. Particulars: 48 hours. How it is done:
as §3

Data set [12] has as its target T1, TRBP (Homo sapiens, UniProt Q15633).
T1 sequence (Q15633 1-366): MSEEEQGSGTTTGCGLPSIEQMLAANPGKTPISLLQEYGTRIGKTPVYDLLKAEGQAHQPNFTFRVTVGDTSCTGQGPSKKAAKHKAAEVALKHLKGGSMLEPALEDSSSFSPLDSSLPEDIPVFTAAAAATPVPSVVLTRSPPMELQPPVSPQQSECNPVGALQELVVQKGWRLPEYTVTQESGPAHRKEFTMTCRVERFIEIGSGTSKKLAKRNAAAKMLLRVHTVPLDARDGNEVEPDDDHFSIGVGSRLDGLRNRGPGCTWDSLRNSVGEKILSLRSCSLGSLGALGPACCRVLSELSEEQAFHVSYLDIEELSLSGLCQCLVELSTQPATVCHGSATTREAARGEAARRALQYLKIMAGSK
As to the kind of experiment: Cellular thermal shift assay of TRBP (HEK-293T lysates, Western blot). It counts as binding. Also on record: endogenous in cells; host or cells: HEK-293T. The protocol:
HEK-293T cells were harvested in PBS supplemented with protease inhibitor cocktail (complete, EDTA-free, Roche). Cell suspensions were freeze-thawed three times in liquid nitrogen and then centrifuged (20 000g) for 10 min at 4 °C. The lysates were diluted at concentration of 2 μg μL^−1 and then treated with DMSO and 50 μM of 33 or with increasing concentration of 33 for 30 min at 37 °C. After this incubation the lysates were divided into equal parts (50 μL) and heated individually at designated temperatures for 3 min. The heated samples were cooled at room temperature for 3 min and centrifuged (20 000g) for 10 min at 4 °C. The supernatants were transferred to new tubes and analyzed by use for western blotting.
as §4

“Also recorded” adds a separate entry of the source.

For orientation: GI50 means the concentration giving 50% growth inhibition. By CC50 is commonly meant the concentration giving 50% cytotoxicity. Read a low CC50 as greater toxicity to the cells. For the molecule `O=C(O)c1cn(C2CC2)c2cc(N3CCc4ccccc4C3)c(F)cc2c1=O` [Compound 33, 1-Cyclopropyl-7-(3,4-dihydroisoquinolin-2(1H)-yl)-6-fluoro-4-oxo-1,4-dihydroquinoline-3-carboxylic acid], halving of growth in data set [1] (Homo sapiens, SK-OV-3, 72 h, 50% cell growth inhibition, 72 hours of treatment, cell count, ND = activity not dose dependent) (GI50) required 13.5 ± 1.45 µM. For the same molecule, the “GI50 SKOV-3, fold lower than enoxacin” value in [1] (versus enoxacin) is on record as “about 9 fold”. For the same molecule, the cytotoxic concentration (CC50) at 72 h in data set [2] was determined as 143 ± 42.7 µM. This molecule gave a GI50 in data set [3] of 18.1 ± 8.25 µM. Further, the 50% growth inhibitory concentration (GI50) in data set [4] is 13.5 to 31 µM. Besides, in data set [5], the “reduction of viability of WT HCCLM3 cells” value was “about 50%”. Moreover, the “antiproliferative effect on KO TRBP SK-Hep-1 cells” value in [6] (30 μM) is reported as “no antiproliferative effect”. Also, the “viability of KO TRBP SK-Hep-1 cells” value in [6] (50 μM) is reported as “not affecting”. In addition, the “effect on MCF-7 cell proliferation” value in data set [7] is on record as “significant inhibitory effect on cell proliferation”. Moreover, in [8], the “effect on A549 cell proliferation” value is on record as “significant inhibitory effect on cell proliferation”. Also, in [9] (Western blot), the “c-PARP and Bcl-XL in SKOV-3 cells” value was “No changes”. In addition, the “total number of SKOV-3 cells” value in data set [9] (trypan blue) is on record as “greatly reduced”. In data set [10] (30 μM, 72 hours, Western blot), the “Bcl-XL protein in A2780 cells” value is reported as “downregulation” and the “cleaved PARP1 (c-PARP) levels in A2780 cells” value is on record as “increased levels of cleaved PARP1”. Moreover, in [10] (30 μM, 72 hours, trypan blue), the “percentage of dead A2780 cells” value was “increased to a great extent” and the “total number of A2780 cells” value is listed as “greatly reduced”. Also, in data set [10] (33 30 μM + cisplatin 1 μM, 48 hours), the “effect of 33 in combination with cisplatin on A2780 proliferation” value was “more pronounced inhibitory effect on A2780 proliferation”. Besides, in data set [11] (30 μM), the “sensitivity of A2780 CIS and A2780 to 33 alone” value was “equal sensitivity”. Further, in [11] (33 30 μM + cisplatin 1 μM), the “effect of 33 in combination with cisplatin on A2780 CIS” value was “synergistic effect; also recorded: sensitized A2780 CIS to cisplatin”. The “thermal shift of TRBP versus DMSO” value in [12] (50 μM, different temperatures) is “significant thermal shift”. The “concentration dependency of TRBP destabilization” value in [12] (increasing concentration, 55 °C) was “destabilization of TRBP in a concentration-dependent manner”.
